{"source": "paper PMC2673211", "about": "“Nitric oxide activates ATP-sensitive potassium channels in mammalian sensory neurons: action by direct S-nitrosylation” (Molecular Pain, 2009)", "format_in_all_cases": "biochemical", "key": {"[1]": {"biological_target": "T1, KATP channels in large DRG neurons (Rattus norvegicus, UniProt P70673+Q09429)", "T1 construct": "native KATP channels in large DRG neurons; endogenous in cells; host or cells: acutely dissociated large-diameter neurons from rat L4/L5 dorsal root ganglia (sham-operated or spinal nerve ligated animals)", "test": "Excised inside-out (cell-free) patch-clamp recording of KATP channel activity", "text": "We harvested control (L4 and L5) or axotomized (L5) ganglia, from control (SS) or hyperalgesic rats (SNL) respectively, between the 17th and 28th postoperative days. We sacrificed animals by decapitation under deep isoflurane anesthesia, excised ganglia through a lumbar incision, and at the same time confirmed accuracy of initial surgery.\nFor patch-clamp recordings, we placed excised DRG into separate 35 mm Petri dishes containing cold, oxygenated, Hanks Balanced Salt Solution (Gibko, Invitrogen, Grand Islan, NY), and minced them with iris scissors. We dissociated ganglia enzymatically in a solution containing 0.25 ml 0.05% w:v liberase blendzyme 2 (Roche Diagnostics Corp., Indianapolis, IN) and 0.25 ml DMEM/F12 with glutaMAX (Dulbecco's modified Eagle's medium F12; Gibco, Invitrogen Corp., Carlsbad, CA) in an incubator at 37°C for 30 min. We then removed the supernatant after centrifugation and re-incubated cells at 37°C for another 30 min in 0.2 ml 0.0625% trypsin (Sigma, St. Louis, MO) and 0.0125% deoxyribonuclease 1 (150,000 U, Sigma, St. Louis, MO) in 0.25 ml DMEM. We then isolated cells by centrifugation (600 rpm for 5 min) after adding 0.25 ml trypsin inhibitor 0.1% w:v (Sigma St. Louis, MO), and re-suspended them in a culture medium consisting of 0.5 mM glutamine, 0.02 mg/ml gentamicin (Gibco, Invitrogen Corp., Carlsbad, CA), 100 ng/ml nerve growth factor 7S (Alomone Labs, Jerusalem, Israel), 2% (vol/vol) B-27 supplement (Gibco, Invitrogen Corp., Carlsbad, CA), and 98% (vol/vol) neural basal medium A (Gibco, Invitrogen Corp., Carlsbad, CA). Finally, we plated cells onto poly-l-lysine-coated 12-mm glass coverslips (Deutsche Spiegelglas; Carolina Biologic Supply, Burlington, NC), kept them in a humidified incubator at 37°C with 95% air and 5% CO2, and studied them within 3–8 h of dissociation.\nWe visualized plated neurons using an inverted Nikon Diaphot 300 microscope with Hoffman modulation optic system. We selected only large diameter neuronal somata (≥ 40 μm in diameter) because we have previously shown that only these develop KATP current alterations, as well as changes indicative of increased excitability after painful-like nerve injury by SNL [74]. Large neuronal somata, roughly correspond to large, myelinated Aβ fibers.\n(§1) We recorded current passing through single channels in inside-out or cell-attached patch configurations. In cell-attached patches, both bath and pipette (extracellular) solutions were composed of the following: 140 mM KCl, 10 mM HEPES, 5.5 mM dextrose, and 1 mM EGTA. In inside-out patches, the bath (intracellular) solution contained 140 mM KCl, 1.2 mM MgCl2, 10 mM HEPES, 1.5 mM EGTA and 5.5 mM dextrose. The pipette (extracellular) solution was of the same composition as that used in cell-attached recordings. The pH of all solutions was adjusted to 7.4 with KOH. Osmolality was adjusted approximately to 300 mOsm/l by adding sucrose if necessary. We pulled patch micropipettes from borosilicate glass capillaries using a Flaming/Brown micropipette puller, model P-97 (Sutter, San Rafael, CA) and flame polished them with a microforge polisher (Narishige, Tokyo, Japan) prior to use. Their resistance ranged between 3 and 6 MΩ when filled with the internal solution, and placed into the recording solutions.\n(§2) We recorded single channel currents at room temperature (20–25°C) using an Axon CNS Multiclamp 700B amplifier, digitized them using an analog-to-digital converter (Axon CNS DigiData 1440A; Axon Instruments, Foster, CA), and stored them into a PC. Sampling frequency of single-channel data was 5 KHz with a low-pass filter (1 KHz). We used pClamp version 10.2 software (Axon Instruments) for data acquisition and analysis. We applied a conventional 50% current amplitude threshold level criterion to determine open events. Channel open probability (Po) was determined from the ratios of the area under the peaks in the amplitude histograms fitted by a Gaussian distribution. […]"}, "[2]": {"biological_target": "T2, wild-type SUR1/Kir6.2 channels (Rattus norvegicus, UniProt P70673+Q09429)", "T2 construct": "A full-length Kir cDNA and a full-length SUR cDNA were subcloned into the mammalian expression vector; expressed in transfected cells; host or cells: COS7 cells (KATP channel-deficient), pcDNA3.1(-) vectors, GFP cDNA co-transfected as a separate reporter", "test": "Inside-out patch recording of recombinant wild-type channels expressed in COS7 cells", "protocol": "(§3) KATP channel-deficient COS7 cells were plated at a density of 3 × 10^5/dish (35 mm in diameter) and cultured in Dulbecco's modified Eagle's medium supplemented with 10% fetal calf serum. Rat Kir6.2 (GenBank X97041) and rat SUR1 (GenBank X97279) cDNAs were used for expression study. A truncated form of Kir6.2 lacking the last 36 amino acids at the C-terminus was obtained by polymerase chain reaction amplification. Polymerase chain reaction products were cloned into the pCR3.1 vector by using the TA cloning system (Invitrogen Corp., Carlsbad, CA, USA) and then cloned into the pcDNA3.1 (-) vector (Invitrogen Corp.) for mammalian expression. Point mutation of cysteine at position 717 (C717), C806, C1378, C1446, and C1491 within SUR1 to serine (C717S, C806S, C1378S, C1446S, and C1491S) was performed by using the Site-Directed Mutagenesis system (Invitrogen Corp.). All cDNA products were sequenced by using the BigDye terminator cycle sequencing kit and an ABI PRISM 377 DNA sequencer (Applied Biosystems, Foster City, CA) to confirm the sequence. A full-length Kir cDNA and a full-length SUR cDNA were subcloned into the mammalian expression vector pcDNA3.1 (-). For electrophysiological recordings, either wild-type or mutated pcDNA3.1 (-) Kir6.2 alone (1 μg), or pcDNA3.1 (-) Kir6.2 (1 μg) plus pcDNA3.1 (-) SUR1 (3 μg) were transfected into COS7 cells with green fluorescent protein cDNA as a reporter gene by using lipofectamine and Opti-MEN 1 reagents (Life Technologies Inc., Rockville, MD) according to the manufacturer's instructions. After transfection, cells were cultured at 37°C with 95% air and 5% CO2 for 48–72 h before being subjected to electrophysiological recordings.\nas §1\nas §2, with “We applied a conventional 50% current amplitude threshold level criterion to determine open events.” left out, “distribution. We calculated channel activity as NPo (where N is the number of observed channels in the patch) from data samples of either 30 s (in inside-out recordings), or 60 s (in cell-attached recordings), in the steady state.” for “distribution.”"}, "[3]": {"biological_target": "T3, SUR1-C717S/Kir6.2 channels (Rattus norvegicus, UniProt P70673+Q09429, C717S)", "T3 construct": "A full-length Kir cDNA and a full-length SUR cDNA were subcloned into the mammalian expression vector; expressed in transfected cells; host or cells: COS7 cells, pcDNA3.1(-) vectors, GFP cDNA co-transfected as a separate reporter", "T3 sequence (Q09429 whole entry C717S)": "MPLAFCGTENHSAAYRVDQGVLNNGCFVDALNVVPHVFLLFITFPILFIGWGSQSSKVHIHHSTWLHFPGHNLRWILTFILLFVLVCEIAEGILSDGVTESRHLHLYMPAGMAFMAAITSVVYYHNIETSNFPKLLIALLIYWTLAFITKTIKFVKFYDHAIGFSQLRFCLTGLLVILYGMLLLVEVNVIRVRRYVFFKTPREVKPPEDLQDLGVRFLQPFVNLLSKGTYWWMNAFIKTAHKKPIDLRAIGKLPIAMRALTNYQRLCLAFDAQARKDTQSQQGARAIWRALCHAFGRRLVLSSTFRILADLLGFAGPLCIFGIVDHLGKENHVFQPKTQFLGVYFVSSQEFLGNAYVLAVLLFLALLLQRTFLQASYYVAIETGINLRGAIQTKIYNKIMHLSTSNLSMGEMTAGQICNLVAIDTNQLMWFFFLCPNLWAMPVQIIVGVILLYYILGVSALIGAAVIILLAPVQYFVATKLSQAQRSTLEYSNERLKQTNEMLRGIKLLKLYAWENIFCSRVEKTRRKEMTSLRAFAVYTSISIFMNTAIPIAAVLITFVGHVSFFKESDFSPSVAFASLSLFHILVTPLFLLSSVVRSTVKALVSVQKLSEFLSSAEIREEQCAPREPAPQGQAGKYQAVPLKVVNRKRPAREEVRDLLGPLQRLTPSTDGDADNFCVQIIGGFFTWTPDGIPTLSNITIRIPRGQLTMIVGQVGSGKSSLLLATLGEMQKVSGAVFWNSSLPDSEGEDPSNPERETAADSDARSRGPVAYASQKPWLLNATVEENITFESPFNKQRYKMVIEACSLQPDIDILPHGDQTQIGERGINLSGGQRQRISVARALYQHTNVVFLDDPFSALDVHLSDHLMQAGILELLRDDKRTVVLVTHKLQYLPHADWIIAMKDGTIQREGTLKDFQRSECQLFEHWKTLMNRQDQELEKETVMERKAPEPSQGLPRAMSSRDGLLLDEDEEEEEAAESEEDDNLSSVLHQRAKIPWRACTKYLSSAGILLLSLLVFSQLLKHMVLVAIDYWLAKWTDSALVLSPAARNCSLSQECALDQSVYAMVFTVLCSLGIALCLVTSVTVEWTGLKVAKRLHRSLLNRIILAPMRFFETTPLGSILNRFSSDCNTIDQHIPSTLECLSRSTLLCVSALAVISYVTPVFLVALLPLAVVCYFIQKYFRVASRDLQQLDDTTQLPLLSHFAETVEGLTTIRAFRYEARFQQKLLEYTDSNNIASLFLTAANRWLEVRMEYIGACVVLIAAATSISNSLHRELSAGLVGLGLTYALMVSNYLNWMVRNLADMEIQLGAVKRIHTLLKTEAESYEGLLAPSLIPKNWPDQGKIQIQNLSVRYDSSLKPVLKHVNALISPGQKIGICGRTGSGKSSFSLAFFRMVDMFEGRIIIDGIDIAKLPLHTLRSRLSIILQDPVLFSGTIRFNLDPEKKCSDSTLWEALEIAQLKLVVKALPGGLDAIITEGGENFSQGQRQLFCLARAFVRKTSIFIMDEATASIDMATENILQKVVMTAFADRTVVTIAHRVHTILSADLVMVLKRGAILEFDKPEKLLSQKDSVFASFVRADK", "T3 sequence (P70673 whole entry)": "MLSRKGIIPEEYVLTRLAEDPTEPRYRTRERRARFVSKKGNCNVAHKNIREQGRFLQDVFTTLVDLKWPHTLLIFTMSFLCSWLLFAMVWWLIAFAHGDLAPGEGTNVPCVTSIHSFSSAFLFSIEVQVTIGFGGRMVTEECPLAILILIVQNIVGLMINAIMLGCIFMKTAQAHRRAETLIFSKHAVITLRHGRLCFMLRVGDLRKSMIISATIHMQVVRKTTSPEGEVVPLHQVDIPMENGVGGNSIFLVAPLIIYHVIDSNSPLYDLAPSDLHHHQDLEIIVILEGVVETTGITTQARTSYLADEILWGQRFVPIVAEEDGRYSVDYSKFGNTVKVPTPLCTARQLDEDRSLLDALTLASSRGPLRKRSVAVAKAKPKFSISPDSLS", "test": "Inside-out patch recording of mutated channels expressed in COS7 cells", "details": "n = 7", "protocol": "as §3, §1\nas §2, with “We applied a conventional 50% current amplitude threshold level criterion to determine open events.” left out, “distribution. We calculated channel activity as NPo (where N is the number of observed channels in the patch) from data samples of either 30 s (in inside-out recordings), or 60 s (in cell-attached recordings), in the steady state.” for “distribution.”"}}, "note": "Where two headings read alike, the source gives them in different places.", "data": [{"smiles": "Nc1ncnc2c1ncn2[C@@H]1O[C@H](COP(=O)(O)OP(=O)(O)OP(=O)(O)O)[C@@H](O)[C@H]1O", "note": "[ATP]", "values": [{"measurement": "effect on channel activity in inside-out patches", "setting": "[1]; ATP 1 mM, SS and SNL, -60 mV", "result": "reversibly blocked"}, {"measurement": "IC50", "setting": "[1]; SNL neurons, various intracellular ATP concentrations, n = 5, read-out: ATP sensitivity IC50", "result": 18.1, "unit": "µM"}, {"measurement": "IC50", "setting": "[1]; SS neurons, various intracellular ATP concentrations, n = 5, read-out: ATP sensitivity IC50", "result": 14.7, "unit": "µM"}, {"measurement": "IC50", "setting": "[1]; absence of SNAP, SS neurons, n = 7, read-out: IC50 value for [ATP]i", "result": 12.8, "unit": "µM"}, {"measurement": "IC50", "setting": "[1]; presence of SNAP, SS neurons, n = 7, read-out: IC50 value for [ATP]i", "result": 54.4, "unit": "µM"}, {"measurement": "effect on recombinant channel currents", "setting": "[2]; 1 mM [ATP]i, COS7 cells, inside-out", "result": "strongly inhibited"}, {"measurement": "IC50", "setting": "[2]; n = 7, read-out: ATP-sensitivity IC50", "result": 11.6, "unit": "µM"}, {"measurement": "effect on recombinant channel currents", "setting": "[3]; 1 mM [ATP]i", "result": "strongly inhibited"}, {"measurement": "IC50", "setting": "[3]; read-out: ATP-sensitivity IC50", "result": 13.1, "unit": "µM"}]}]}
